In patent US11058680B2, “Combinations of opioid/TLR4 antagonists and acetaminophen for use in the treatment of emotional pain and insomnia” (Allodynic Threapeutics, LLC, priority 2016, dated 2021):

Columns and labels:
Type in all cases: in vivo, human
emotional pain = assay: Migraine open-label pilot study: emotional pain on 4-point scale (emotional pain-free, emotional pain intensity); settings: for Change in emotional pain-free / Change in emotional pain-intensity: baseline to 24 h; for Emotional pain-intensity at 24 hours post-dosing / Emotional pain-intensity at baseline: sum of severity of all patients
Method: Sixteen unique patients were enrolled in an open phase pilot study for the acute treatment of migraine attacks, insomnia, and emotional pain. Of the sixteen patients, eleven were evaluated for one migraine attack, one for two attacks, two for four attacks, one for six attacks, and one for fourteen attacks. A total of forty-one […] treatments were evaluated. Patients received a single dose of one of the following treatment options:
The majority of the patients remained in the clinic for observation for 2 hours after dosing. They completed headache diary assessments immediately before and after dosing at time points: 7, 15, and 30 minutes; and 1, 1.5, 2, 3, 6, 12, 24, and 48 hours. Headache pain was assessed on a 4-point scale (0=none; 1=mild; 2=moderate; 3=severe). The assessment of photophobia, phonophobia, nausea, and neck/shoulder pain was assessed as present or absent. The assessment of emotional pain was recorded on a 4-point scale (0=none, 1=mild, 2=moderate, 3=severe). The assessment of difficulty sleeping or falling asleep (insomnia) was assessed on a 4-point scale (0=none, 1=mild, 2=moderate, 3=severe) at baseline, for the night before treatment and for the following nights at 24, and 48 hours. Patients recorded side effects severity at each time point. Patients recorded the time of the first rescue medication dose and all additional headache medications used within 48 hours. Patients were required to stay awake to record their assessments in the first 2 hours, sleeping was permitted thereafter. While asleep, assessments were completed according to patients' best estimation. For data analysis, it was assumed that a migraine attack is a unique patient. Patients were asked to specify (yes or no answer) to whether they experienced emotional pain symptoms such as: hurt feelings, sadness, fear, or anger. Patients who replied positively to having emotional pain were asked to specify the cause into one of the following options: relationship, work/school, money/debt, health, or loss/grief.

[1] = test system: patient with chronic migraines, lower back pain and anger with spouse; assay: Example 9 case study; settings: naltrexone 5 mg twice daily for 14 months
Excerpt: For 30 years they and their retired spouse were always together.

[2] = test system: patient with post herpetic neuralgia, chronic lower back pain and anger with spouse; assay: Example 8 case study; settings: naltrexone 5 mg/clonidine 0.025 mg twice daily; naltrexone 5 mg twice daily; naltrexone 2.25 mg and acetaminophen 325 mg four times daily
[3] = 24 hours after dosing, naltrexone/acetaminophen 2.25 mg/325 mg (N=21), naltrexone 2.25 mg (N=9)
[4] = NTX/APAP 2.25 mg/325 mg, NTX 2.25 mg
[5] = NTX/APAP 3.25 mg/325 mg, NTX 3.25 mg

O=C1CC[C@@]2(O)[C@H]3Cc4ccc(O)c5c4[C@@]2(CCN3CC2CC2)[C@H]1O5 [naltrexone]
emotional pain intensity decreased by (emotional pain; 24-hour change from baseline, naltrexone 2.25 mg (n=9)): 55% | Emotional pain-free (emotional pain; 7 min, NTX/APAP 2.25 mg/325 mg, NTX 2.25 mg): 1 (33) n (%) | Emotional pain-free (emotional pain; 7 min, NTX/APAP 3.25 mg/325 mg, NTX 3.25 mg): 1 n (%) | Emotional pain-free (emotional pain; 7 min, NTX/APAP 5 mg/325 mg, NTX 5 mg): 0 n (%) | Emotional pain-free (emotional pain; 7 min, all doses combined): 2 (33) n (%) | Emotional pain-free (emotional pain; 15 min, NTX/APAP 2.25 mg/325 mg, NTX 2.25 mg): 7 (77) n (%) | Emotional pain-free (emotional pain; 15 min, NTX/APAP 3.25 mg/325 mg, NTX 3.25 mg): 2 n (%) | Emotional pain-free (emotional pain; 15 min, NTX/APAP 5 mg/325 mg, NTX 5 mg): 0 n (%) | Emotional pain-free (emotional pain; 15 min, NTX/APAP […]325 mg, NTX 1.5 mg): 2 n (%) | Emotional pain-free (emotional pain; 15 min, all doses combined): 11 (69) n (%) | Emotional pain-free (emotional pain; 30 min, NTX/APAP 2.25 mg/325 mg, NTX 2.25 mg): 8 (89) n (%) | Emotional pain-free (emotional pain; 30 min, NTX/APAP 3.25 mg/325 mg, NTX 3.25 mg): 2 (66) n (%) | Emotional pain-free (emotional pain; 30 min, NTX/APAP 5 mg/325 mg, NTX 5 mg): 1 (100) n (%) | Emotional pain-free (emotional pain; 30 min, NTX/APAP […]325 mg, NTX 1.5 mg): 2 (66) n (%) | Emotional pain-free (emotional pain; 30 min, all doses combined): 13 (87) n (%) | Emotional pain-free (emotional pain; 1 h, NTX/APAP 2.25 mg/325 mg, NTX 2.25 mg): 9 (100) n (%) | Emotional pain-free (emotional pain; 1 h, NTX/APAP 3.25 mg/325 mg, NTX 3.25 mg): 2 (66) n (%) | Emotional pain-free (emotional pain; 1 h, NTX/APAP 5 mg/325 mg, NTX 5 mg): 1 n (%) | Emotional pain-free (emotional pain; 1 h, NTX/APAP […]325 mg, NTX 1.5 mg): 2 (66) n (%) | Emotional pain-free (emotional pain; 1 h, all doses combined): 14 (88) n (%) | Emotional pain-free (emotional pain; 90 min, NTX/APAP 2.25 mg/325 mg, NTX 2.25 mg): 9 (100) n (%) | Emotional pain-free (emotional pain; 90 min, NTX/APAP 3.25 mg/325 mg, NTX 3.25 mg): 3 (100) n (%) | Emotional pain-free (emotional pain; 90 min, NTX/APAP 5 mg/325 mg, NTX 5 mg): 1 (100) n (%) | Emotional pain-free (emotional pain; 90 min, NTX/APAP […]325 mg, NTX 1.5 mg): 3 (100) n (%) | Emotional pain-free (emotional pain; 90 min, all doses combined): 16 (100) n (%) | Emotional pain-free (emotional pain; 2 h, NTX/APAP 2.25 mg/325 mg, NTX 2.25 mg): 9 (100) n (%) | Emotional pain-free (emotional pain; 2 h, NTX/APAP 3.25 mg/325 mg, NTX 3.25 mg): 3 (100) n (%) | Emotional pain-free (emotional pain; 2 h, NTX/APAP 5 mg/325 mg, NTX 5 mg): 1 n (%) | Emotional pain-free (emotional pain; 2 h, NTX/APAP […]325 mg, NTX 1.5 mg): 3 (100) n (%) | Emotional pain-free (emotional pain; 2 h, combined doses): 16 (100) | Emotional pain-free (emotional pain; 3 h, NTX/APAP 2.25 mg/325 mg, NTX 2.25 mg): 9 (100) n (%) | Emotional pain-free (emotional pain; 3 h, NTX/APAP 3.25 mg/325 mg, NTX 3.25 mg): 3 (100) n (%) | Emotional pain-free (emotional pain; 3 h, NTX/APAP 5 mg/325 mg, NTX 5 mg): 1 (100) n (%) | Emotional pain-free (emotional pain; 3 h, NTX/APAP […]325 mg, NTX 1.5 mg): 3 (100) n (%) | Emotional pain-free (emotional pain; 3 h, combined doses): 16 (100) n (%) | Emotional pain-free (emotional pain; 4 h, NTX/APAP 2.25 mg/325 mg, NTX 2.25 mg): 9 (100) n (%) | Emotional pain-free (emotional pain; 4 h, NTX/APAP 3.25 mg/325 mg, NTX 3.25 mg): 3 (100) n (%) | Emotional pain-free (emotional pain; 4 h, NTX/APAP 5 mg/325 mg, NTX 5 mg): 1 (100) n (%) | Emotional pain-free (emotional pain; 4 h, NTX/APAP […]325 mg, NTX 1.5 mg): 3 (100) n (%) | Emotional pain-free (emotional pain; 4 h, combined doses): 15 (94) n (%) | Emotional pain-free (emotional pain; 6 h, NTX/APAP 2.25 mg/325 mg, NTX 2.25 mg): 9 (100) n (%) | Emotional pain-free (emotional pain; 6 h, NTX/APAP 3.25 mg/325 mg, NTX 3.25 mg): 3 (100) n (%) | Emotional pain-free (emotional pain; 6 h, NTX/APAP 5 mg/325 mg, NTX 5 mg): 1 (100) n (%) | Emotional pain-free (emotional pain; 6 h, NTX/APAP […]325 mg, NTX 1.5 mg): 3 (100) n (%) | Emotional pain-free (emotional pain; 6 h, combined doses): 15 (94) n (%) | Emotional pain-free (emotional pain; 12 h, NTX/APAP 2.25 mg/325 mg, NTX 2.25 mg): 9 (100) n (%) | Emotional pain-free (emotional pain; 12 h, NTX/APAP 3.25 mg/325 mg, NTX 3.25 mg): 3 (100) n (%) | Emotional pain-free (emotional pain; 12 h, NTX/APAP 5 mg/325 mg, NTX 5 mg): 1 (100) n (%) | Emotional pain-free (emotional pain; 12 h, NTX/APAP […]325 mg, NTX 1.5 mg): 3 (100) n (%) | Emotional pain-free (emotional pain; 12 h, combined doses): 15 (94) n (%) | Emotional pain-free (emotional pain; 24 h, NTX/APAP 2.25 mg/325 mg, NTX 2.25 mg): 9 (100) n (%) | Emotional pain-free (emotional pain; 24 h, NTX/APAP 3.25 mg/325 mg, NTX 3.25 mg): 3 (100) n (%) | Emotional pain-free (emotional pain; 24 h, NTX/APAP 5 mg/325 mg, NTX 5 mg): 1 (100) n (%) | Emotional pain-free (emotional pain; 24 h, NTX/APAP […]325 mg, NTX 1.5 mg): 3 (100) n (%) | Emotional pain-free (emotional pain; 24 h, combined doses): 15 (94) | Emotional Pain-free at 24 hours after dosing (emotional pain; 24 hours after dosing, NTX/APAP 2.25 mg/325 mg, NTX 2.25 mg): 9 (100) n (%) | Emotional Pain-free at 24 hours after dosing (emotional pain; 24 hours after dosing, NTX/APAP 3.25 mg/325 mg, NTX 3.25 mg): 3 n (%) | Emotional Pain-free at 24 hours after dosing (emotional pain; 24 hours after dosing, NTX/APAP 5 mg/325 mg, NTX 5 mg): 1 n (%) | Emotional Pain-free at 24 hours after dosing (emotional pain; 24 hours after dosing, NTX/APAP […]325 mg, NTX 1.5 mg): 3 n (%) | emotional pain intensity change from baseline (emotional pain; [3]): −55% | emotional pain-free change from baseline (emotional pain; [3]): 33% | Emotional pain-free (emotional pain; 48 h, NTX/APAP 2.25 mg/325 mg, NTX 2.25 mg): 9 (100) | Emotional pain-free (emotional pain; 48 h, NTX/APAP 3.25 mg/325 mg, NTX 3.25 mg): 3 (100) | Emotional pain-free (emotional pain; 48 h, NTX/APAP 5 mg/325 mg, NTX 5 mg): 1 (100) | Emotional pain-free (emotional pain; 48 h, NTX/APAP […]325 mg, NTX 1.5 mg): 3 (100) | Emotional pain-free (emotional pain; 48 h, combined doses): 13 (100) n (%) | Change in emotional pain-free (emotional pain; [4]): +3 (+33) n (%) | Change in emotional pain-intensity (emotional pain; [4]): −5 (−55) n (%) | Change in emotional pain-intensity (emotional pain; [5]): −1 (−100) n (%) | Change in emotional pain-intensity (emotional pain; NTX/APAP 5 mg/325 mg, NTX 5 mg): −2 (−100) n (%) | Change in emotional pain-free (emotional pain; NTX/APAP […]325 mg, NTX 1.5 mg): +1 n (%) | Emotional pain-free at baseline (emotional pain; [4]): 6 (66) n (%) | Emotional pain-free at baseline (emotional pain; [5]): 2 n (%) | Emotional pain-free at baseline (emotional pain; NTX/APAP 5 mg/325 mg, NTX 5 mg): 0 n (%) | Emotional pain-free at baseline (emotional pain; NTX/APAP […]325 mg, NTX 1.5 mg): 2 n (%) | Emotional pain-intensity at 24 hours post-dosing (emotional pain; [4]): 0 n (%) | Emotional pain-intensity at 24 hours post-dosing (emotional pain; [5]): 0 n (%) | Emotional pain-intensity at 24 hours post-dosing (emotional pain; NTX/APAP 5 mg/325 mg, NTX 5 mg): 0 n (%) | Emotional pain-intensity at 24 hours post-dosing (emotional pain; NTX/APAP […]325 mg, NTX 1.5 mg): 0 n (%) | Emotional pain-intensity at baseline (emotional pain; [4]): 5 (55) n (%) | Emotional pain-intensity at baseline (emotional pain; [5]): 1 n (%) | Emotional pain-intensity at baseline (emotional pain; NTX/APAP 5 mg/325 mg, NTX 5 mg): 2 n (%) | Emotional pain-intensity at baseline (emotional pain; NTX/APAP […]325 mg, NTX 1.5 mg): 2 n (%) | lower back pain diminished by [1]: 90% | migraine intensity and frequency lessened by [1]: 90% | mean average pain intensity [2]: 1.5 /10
